{
  "source": "patent US9150579B2",
  "about": "“Selective PI3K delta inhibitors” (Rhizen Pharmaceuticals SA, priority 2012, dated 2015)",
  "key": {"[1]": {"tested_on": "AML patient bone marrow leukemic cells", "experiment": "Assay 6-III: Cell proliferation analysis of AML patient bone marrow sample (MTS)", "format": "cell-based, human", "procedure": "6-III: Cell proliferation analysis of AML patient bone marrow sample using MTS assay: Mononuclear cells were extracted by the Ficoll method and seeded in plates. The cells were treated by different compounds for 48 hrs and 72 hrs before they were analyzed by MTS assay following product instruction. Briefly, 20 μL of the MTS solution was added into each well containing the 100 μL cell suspension, followed by incubation for 4 hours at 37° C., in 95% humidity with presence of 5% CO2. The absorbance of 490 nm (A490) was read using SpectraMAX Plus microplate spectrophotometer."}, "PI3K α": {"biological_target": "PI3K α (Homo sapiens (Human), UniProt P42336)", "sequence (P42336 whole entry, canonical isoform)": "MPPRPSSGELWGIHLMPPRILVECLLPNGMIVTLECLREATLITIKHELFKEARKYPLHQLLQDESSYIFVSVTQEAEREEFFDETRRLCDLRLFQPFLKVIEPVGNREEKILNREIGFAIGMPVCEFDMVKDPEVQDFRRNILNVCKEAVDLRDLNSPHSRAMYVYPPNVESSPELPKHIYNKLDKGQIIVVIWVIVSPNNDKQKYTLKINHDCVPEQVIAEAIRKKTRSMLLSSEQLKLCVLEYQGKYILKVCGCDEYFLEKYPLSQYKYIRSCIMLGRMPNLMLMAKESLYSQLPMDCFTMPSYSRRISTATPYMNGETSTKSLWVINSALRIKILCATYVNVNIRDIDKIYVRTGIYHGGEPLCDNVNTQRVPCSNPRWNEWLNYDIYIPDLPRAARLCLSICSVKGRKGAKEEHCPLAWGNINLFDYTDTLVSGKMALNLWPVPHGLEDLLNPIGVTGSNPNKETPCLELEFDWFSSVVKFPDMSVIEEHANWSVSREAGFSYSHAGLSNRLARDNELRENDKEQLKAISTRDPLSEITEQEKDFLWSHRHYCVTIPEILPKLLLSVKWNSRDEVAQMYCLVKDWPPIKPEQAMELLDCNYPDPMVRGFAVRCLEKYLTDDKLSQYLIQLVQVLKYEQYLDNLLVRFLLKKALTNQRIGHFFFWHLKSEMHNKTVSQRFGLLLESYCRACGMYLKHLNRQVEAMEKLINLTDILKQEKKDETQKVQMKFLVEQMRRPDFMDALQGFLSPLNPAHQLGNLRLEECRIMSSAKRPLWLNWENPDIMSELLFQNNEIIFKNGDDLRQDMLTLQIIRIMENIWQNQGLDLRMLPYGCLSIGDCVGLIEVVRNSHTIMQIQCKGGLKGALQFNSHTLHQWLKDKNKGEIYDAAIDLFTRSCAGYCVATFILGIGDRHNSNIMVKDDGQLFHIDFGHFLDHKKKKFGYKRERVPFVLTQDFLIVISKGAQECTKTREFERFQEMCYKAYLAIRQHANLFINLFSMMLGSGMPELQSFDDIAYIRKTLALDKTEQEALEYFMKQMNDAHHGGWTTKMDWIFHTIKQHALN", "sequence (P27986 whole entry partner, canonical isoform)": "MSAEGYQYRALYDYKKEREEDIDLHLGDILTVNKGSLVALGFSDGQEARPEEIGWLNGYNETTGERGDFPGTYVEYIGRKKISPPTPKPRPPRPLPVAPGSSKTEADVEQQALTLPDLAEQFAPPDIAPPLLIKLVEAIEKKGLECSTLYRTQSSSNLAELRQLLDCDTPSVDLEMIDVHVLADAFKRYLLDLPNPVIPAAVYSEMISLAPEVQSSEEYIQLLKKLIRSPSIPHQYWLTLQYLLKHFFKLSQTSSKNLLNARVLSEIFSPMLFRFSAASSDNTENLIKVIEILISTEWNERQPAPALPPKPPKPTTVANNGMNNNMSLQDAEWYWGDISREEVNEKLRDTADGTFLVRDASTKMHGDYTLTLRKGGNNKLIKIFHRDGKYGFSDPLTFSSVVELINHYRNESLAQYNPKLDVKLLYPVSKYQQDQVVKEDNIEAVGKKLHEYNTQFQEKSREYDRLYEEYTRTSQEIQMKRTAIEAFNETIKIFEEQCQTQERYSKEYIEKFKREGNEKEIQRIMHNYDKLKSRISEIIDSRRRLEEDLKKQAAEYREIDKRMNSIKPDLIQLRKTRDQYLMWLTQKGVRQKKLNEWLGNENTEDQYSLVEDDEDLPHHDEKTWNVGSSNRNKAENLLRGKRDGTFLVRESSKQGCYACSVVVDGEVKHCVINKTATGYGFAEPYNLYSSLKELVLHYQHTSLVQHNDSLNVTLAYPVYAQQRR", "experiment": "Assay 1: Fluorescent (HTRF) determination of PI3K enzyme activity, alpha", "format": "biochemical", "procedure": "The homogenous time resolved fluorescence (HTRF) assay allows detection of 3,4,5-triphosphate (PIP3) formed as a result of phosphorylation of phosphotidylinositol 4,5-biphosphate (PIP2) by PI3K isoforms such as α, β, γ or δ.\nPI3K isoform activity for α, β, γ or δ was determined using a PI3K human HTRF™ Assay Kit (Millipore, Billerica, Mass.) with modifications. All incubations were carried out at room temperature. […] After the initial incubation, 5 μl/well of 400 μM ATP was added and incubated for an additional 30 minutes. Reaction was terminated by adding 5 μl/well stop solution (Millipore, Billerica, Mass.). Five microliters of detection mix (Millipore, Billerica, Mass.) were then added to each well and was incubated for 6-18 h in the dark."}, "leukemic cells": {"tested_on": "leukemic cells", "experiment": "Assay 5: Apoptosis in leukemic cell lines (in situ Caspase 3 kit)", "format": "cell-based", "conditions": "24 hrs", "procedure": "Apoptosis in leukemic cells was determined using an in situ Caspase 3 kit (Millipore, US) as outlined below: • Seed leukemic cells at a density of 1×10^6 cells/well in a 6 well plate • Add test compound/DMSO at desired concentrations • Incubate the plate for 24 hrs at 37° C. in 5% CO2 incubator • Collect cells in a 2 ml centrifuge tube • Add 1.6 μL of freshly prepared 5× FLICA reagent and mix cells by slightly flicking the tubes • Incubate tubes for 1 hour at 37° C. under 5% CO2 • Add 2 ml of 1× wash buffer to each tube and mix • Centrifuge cells at <400×g for 5 minutes at room temperature. • Carefully remove and discard supernatant, and gently vortex cell pellet to disrupt any cell-to-cell clumping. • Resuspend cell pellet in 300 ul of 1× wash buffer • Place 100 μL of each cell suspension into each of two wells of a black microtiter plate. Avoid creation of bubbles. • Read […] of each microwell using an excitation wavelength of 490 nm and an emission wavelength of 520 nm • Percent increase in caspase-3 activity manifested by an increase in fluorescence compared to the control blank is to be calculated."}},
  "note": "Entries after “also recorded” stand apart in the source; their conditions may differ.",
  "data": [
    {"smiles": "CC(C)Oc1ccc(-c2nn([C@@H](C)c3oc4ccccc4c(=O)c3-c3cccc(F)c3)c3ncnc(N)c23)cc1F", "note": "[Compound A1, (S)-2-(1-(4-amino-3-(3-fluoro-4-isopropoxyphenyl)-1H-pyrazolo[3,4-d]pyrimidin-1-yl)ethyl)-3-(3-fluorophenyl)-4H-chromen-4-one]", "values": [
      {"measurement": "cell viability / proliferation", "setting": "[1]", "result": "dose dependent reduction in proliferation; also recorded: Dose dependent reduction in cell viability"},
      {"measurement": "inhibition at 1 µM", "setting": "PI3K α", "result": 8.91, "unit": "%"},
      {"measurement": "Fold-Selectivity PI3Kα", "setting": "PI3K α; Enzyme, versus PI3Kδ", "result": ">1000", "unit": "fold"},
      {"measurement": "Caspase-3 activity", "setting": "leukemic cells", "result": "dose-dependently induced Caspase-3 activity"}
    ]}
  ]
}
